This passage reports EC50 results from patent publication US20240050576A1, “METHODS AND COMPOUNDS FOR THE TREATMENT OF GENETIC DISEASE” (Design Therapeutics, Inc., priority 2020, published 2024).

One assay relates to human FXN. Description: FXN mRNA expression by qRT-PCR in GM15850 cells after 48 hr compound treatment. The assay is classed as cell-based. To be noted: GM15850 cells, 48 hr incubation, hFXN normalized to hGAPDH; read-out: EC50 WT (nM, 48 hr). As for the experimental part: Cell culture: Cells were cultured in RPMI1640 medium+15% FBS. Cells were maintained at a density between 2e5/mL and 1e6/mL. Cells were centrifuged, resuspended in fresh medium, counted and plated at 150,000 cells per well in 100 uL in a non-coated, flat bottom tissue culture plate.
Compound treatment: 10 mM stock solution of FA GeneTAC was diluted 1:10 in DMSO followed by a 1:100 dilution in growth medium. […] Compound was then diluted at a 1:3 ratio into growth medium containing 0.01% DMSO. 5-point, 3-fold dose response curve was generated. 11 μL of 10× compound was added to wells containing 100 μL cell suspension of GM15850. 11 μL growth medium containing 0.01% DMSO was added to all wells not treated with FA GeneTAC. Cells were allowed to incubate for 48 hrs prior to cell lysis using guanidine isothiocyanate solution.
RNA isolation: Total RNA was isolated and purified in 384-well column filter plates using chaotropic salt.
qRT-PCR: qRT-PCR reactions were assembled using AgPath-ID reagents (Thermo Fisher) using 6 uL mastermix and 4 μL RNA. qRT-PCR TaqMan primer probe sets against human FXN (Assay ID Hs01075496_m1) and human GAPDH (Assay ID Hs00266705_g1) were used to measure the intended targets. qRT-PCR was run on the ThermoFisher QuantStudio 6 PRO instrument using the manufacturer's recommended cycling conditions.
Data analysis: qPCR data was analyzed using Thermo Fisher Design and Analysis software. Data was exported to Excel and hFXN expression was normalized to hGAPDH expression.
For the molecule `Cc1sc2c(c1C)C(c1ccc(Cl)cc1)=N[C@@H](CC(=O)Nc1ccc(OCCOCCOCCOCCOCCOCCC(=O)NCCCN(CCCNC(=O)CCNC(=O)c3nc(NC(=O)CCNC(=O)c4cc(NC(=O)c5nc(NC(=O)CCNC(=O)c6cc(NC(=O)c7nccn7C)cn6C)cn5C)cn4C)cn3C)CC(F)(F)F)cc1)c1nnc(C)n1-2` [Compound 38], the EC50 was less than 100 nM.

Staying with this assay, now noted: Homo sapiens; GM15850 cells, 48 hr incubation, hFXN normalized to hGAPDH; read-out: EC50 WT (nM, 48 hr).
For the molecule `Cc1sc2c(c1C)C(c1ccc(Cl)cc1)=N[C@@H](CC(=O)Nc1ccc(OCCOCCOCCOCC(=O)N3CCN(CCOCCOCCOCCNC(=O)CCNC(=O)c4nc(NC(=O)CCNC(=O)c5cc(NC(=O)c6nc(NC(=O)CCNC(=O)c7cc(NC(=O)c8nccn8C)cn7C)cn6C)cn5C)cn4C)CC3)cc1)c1nnc(C)n1-2` [Compound 39], the EC50 is less than 100 nM.
With `Cc1sc2c(c1C)C(c1ccc(Cl)cc1)=N[C@@H](CC(=O)Nc1ccc(OCCOCCOCCOCCN3CCN(CCOCCOCCOCCNC(=O)CCNC(=O)c4nc(NC(=O)CCNC(=O)c5cc(NC(=O)c6nc(NC(=O)CCNC(=O)c7cc(NC(=O)c8nccn8C)cn7C)cn6C)cn5C)cn4C)CC3)cc1)c1nnc(C)n1-2` [Compound 40], the EC50 was less than 100 nM.
Take `Cc1noc(C)c1-c1cnc2c(-c3ccc(C(=O)NCCOCCOCCOCCOCCOCCOCCOCCNC(=O)CCNC(=O)c4nc(NC(=O)CCNC(=O)c5cc(NC(=O)c6nc(NC(=O)CCNC(=O)c7cc(NC(=O)c8nccn8C)cn7C)cn6C)cn5C)cn4C)cc3)cn([C@@H](C)c3ccccn3)c2c1` [Compound 41]: the EC50 lay within 100 to 500 nM.
`Cc1noc(C)c1-c1cnc2c(-c3ccc(C(=O)NCCOCCOCCOCCOCCOCCOCCOCCOCCNC(=O)CCNC(=O)c4nc(NC(=O)CCNC(=O)c5cc(NC(=O)c6nc(NC(=O)CCNC(=O)c7cc(NC(=O)c8nccn8C)cn7C)cn6C)cn5C)cn4C)cc3)cn([C@@H](C)c3ccccn3)c2c1` [Compound 42]: the EC50 is less than 100 nM.
`COC[C@@H](C)n1c(C2CCN(C(=O)COCCOCCOCCOCCOCCOCCOCCNC(=O)CCNC(=O)c3nc(NC(=O)CCNC(=O)c4cc(NC(=O)c5nc(NC(=O)CCNC(=O)c6cc(NC(=O)c7nccn7C)cn6C)cn5C)cn4C)cn3C)CC2)nc2cnc3cc(-c4c(C)noc4C)c(OC)cc3c21` [Compound 43, N-[5-[(2-[[2-([2-[(23-[4-[7-(3,5-dimethyl-1,2-oxazol-4-yl)-8-methoxy-1-[(2R)-1-methoxypropan-2-yl]imidazo[4,5-c]quinolin-2-yl]piperidin-1-yl]-23-oxo-3,6,9,12,15,18,21-heptaoxatricosan-1-yl)carbamoyl]ethyl]carbamoyl)-1-methylimidazol-4-yl]carbamoyl]ethyl)carbamoyl]-1-methylpyrrol-3-yl]-1-methyl-4-(3-[[1-methyl-4-(1-methylimidazole-2-amido)pyrrol-2-yl]formamido]propanamido) imidazole-2-carboxamide]: the EC50 was greater than 500 nM.
Take `COC[C@@H](C)n1c(C2CCN(C(=O)COCCOCCOCCOCCOCCOCCOCCOCCNC(=O)CCNC(=O)c3nc(NC(=O)CCNC(=O)c4cc(NC(=O)c5nc(NC(=O)CCNC(=O)c6cc(NC(=O)c7nccn7C)cn6C)cn5C)cn4C)cn3C)CC2)nc2cnc3cc(-c4c(C)noc4C)c(OC)cc3c21` [Compound 44]: the EC50 lay in the range of 100 to 500 nM.
As for `CC(=O)N1c2ccc(C3=CCN(C(=O)COCCOCCOCCOCCOCCOCCOCCNC(=O)CCNC(=O)c4nc(NC(=O)CCNC(=O)c5cc(NC(=O)c6nc(NC(=O)CCNC(=O)c7cc(NC(=O)c8nccn8C)cn7C)cn6C)cn5C)cn4C)CC3)cc2N(Cc2ccccc2CO)C[C@@H]1C1CC1` [Compound 45], the EC50 lay within 100 to 500 nM.
Same read-out and setting: in the case of `CC(=O)N1c2ccc(C3=CCN(C(=O)COCCOCCOCCOCCOCCOCCOCCOCCNC(=O)CCNC(=O)c4nc(NC(=O)CCNC(=O)c5cc(NC(=O)c6nc(NC(=O)CCNC(=O)c7cc(NC(=O)c8nccn8C)cn7C)cn6C)cn5C)cn4C)CC3)cc2N(Cc2ccccc2CO)C[C@@H]1C1CC1` [Compound 46] it was 100 to 500 nM; in that of `CC(=O)N1c2ccc(-c3cnc(C(=O)NCCOCCOCCOCCOCCOCCOCCOCCOCCNC(=O)CCNC(=O)c4nc(NC(=O)CCNC(=O)c5cc(NC(=O)c6nc(NC(=O)CCNC(=O)c7cc(NC(=O)c8nccn8C)cn7C)cn6C)cn5C)cn4C)nc3)cc2N(Cc2ccccc2CO)C[C@@H]1C1CC1` [Compound 48, N-(5-[[2-([2-[(2-[[26-([5-[(2S)-1-acetyl-2-cyclopropyl-4-[[2-(hydroxymethyl)phenyl]methyl]-2,3-dihydroquinoxalin-6-yl]pyrimidin-2-yl]formamido)-3,6,9,12,15,18,21,24-octaoxahexacosan-1-yl]carbamoyl]ethyl)carbamoyl]-1-methylimidazol-4-yl]carbamoyl)ethyl]carbamoyl]-1-methylpyrrol-3-yl)-1-methyl-4-(3-[[1-methyl-4-(1-methylimidazole-2-amido)pyrrol-2-yl]formamido]propanamido)imidazole-2-carboxamide], greater than 500 nM; in that of `CCCNC(=O)CCNC(=O)c1nc(NC(=O)CCNC(=O)c2cc(NC(=O)c3nc(NC(=O)CCNC(=O)c4cc(NC(=O)c5nc(NC(=O)COCCOCCOCCOCCOCCOCCOCCOc6ccc(NC(=O)C[C@@H]7N=C(c8ccc(Cl)cc8)c8c(sc(C)c8C)-n8c(C)nnc87)cc6)cn5C)cn4C)cn3C)cn2C)cn1C` [Compound 49], less than 100 nM.
`CCCNC(=O)CCNC(=O)c1nc(NC(=O)CCNC(=O)c2cc(NC(=O)c3nc(NC(=O)CCNC(=O)c4cc(NC(=O)c5nc(NC(=O)COCCOCCOCCOCCOCCOCCOCCOCCOc6ccc(NC(=O)C[C@@H]7N=C(c8ccc(Cl)cc8)c8c(sc(C)c8C)-n8c(C)nnc87)cc6)cn5C)cn4C)cn3C)cn2C)cn1C` [Compound 50]: the concentration giving a half-maximal response (EC50) was less than 100 nM.
Still for that read-out and setting: next, `CCCNC(=O)c1nc(NC(=O)CCNC(=O)c2cc(NC(=O)c3nc(NC(=O)CCNC(=O)c4cc(NC(=O)c5nc(NC(=O)CCNC(=O)COCCOCCOCCOCCOCCOCCOCCOc6ccc(NC(=O)C[C@@H]7N=C(c8ccc(Cl)cc8)c8c(sc(C)c8C)-n8c(C)nnc87)cc6)cn5C)cn4C)cn3C)cn2C)cn1C` [Compound 51]: less than 100 nM; `CCCNC(=O)c1nc(NC(=O)CCNC(=O)c2cc(NC(=O)c3nc(NC(=O)CCNC(=O)c4cc(NC(=O)c5nc(NC(=O)CCNC(=O)COCCOCCOCCOCCOCCOCCOCCOCCOc6ccc(NC(=O)C[C@@H]7N=C(c8ccc(Cl)cc8)c8c(sc(C)c8C)-n8c(C)nnc87)cc6)cn5C)cn4C)cn3C)cn2C)cn1C` [Compound 52]: less than 100 nM.
Same read-out and setting: next, `Cc1sc2c(c1C)C(c1ccc(Cl)cc1)=N[C@@H](CC(=O)Nc1ccc(OCCOCCOCCOCCOCCOCCC(=O)N(C)CCCN(C)CCCNC(=O)CCNC(=O)c3nc(NC(=O)CCNC(=O)c4cc(NC(=O)c5nc(NC(=O)CCNC(=O)c6cc(NC(=O)c7nccn7C)cn6C)cn5C)cn4C)cn3C)cc1)c1nnc(C)n1-2` [Compound 53]: 100 to 500 nM.
On the same count and under the same terms, next, `Cc1sc2c(c1C)C(c1ccc(Cl)cc1)=N[C@@H](CC(=O)Nc1ccc(OCCOCCOCCOCCOCCOCCC(=O)N(C)CCCN(C)CCCN(C)C(=O)CCNC(=O)c3nc(NC(=O)CCNC(=O)c4cc(NC(=O)c5nc(NC(=O)CCNC(=O)c6cc(NC(=O)c7nccn7C)cn6C)cn5C)cn4C)cn3C)cc1)c1nnc(C)n1-2` [Compound 54]: 100 to 500 nM; `Cc1sc2c(c1C)C(c1ccc(Cl)cc1)=N[C@@H](CC(=O)Nc1ccc(OCCOCCOCCOCCOCCOCCOCCC(=O)NCCCN(C)CCCNC(=O)c3cc(NC(=O)c4nc(NC(=O)CCNC(=O)c5cc(NC(=O)c6nc(NC(=O)CCNC(=O)c7cc(NC(=O)c8nccn8C)cn7C)cn6C)cn5C)cn4C)cn3C)cc1)c1nnc(C)n1-2` [Compound 55]: 100 to 500 nM.
Take `Cc1sc2c(c1C)C(c1ccc(Cl)cc1)=N[C@@H](CC(=O)Nc1ccc(OCCOCCOCCOCCOCCOCCOCCOCCC(=O)NCCCN(C)CCCNC(=O)c3cc(NC(=O)c4nc(NC(=O)CCNC(=O)c5cc(NC(=O)c6nc(NC(=O)CCNC(=O)c7cc(NC(=O)c8nccn8C)cn7C)cn6C)cn5C)cn4C)cn3C)cc1)c1nnc(C)n1-2` [Compound 56]: the EC50 lay within 100 to 500 nM.
For `Cc1sc2c(c1C)C(c1ccc(Cl)cc1)=N[C@@H](CC(=O)Nc1ccc(OCCOCCOCCOCCOCCOCCOCCOCC(=O)NCCCN(C)CCCNC(=O)c3cc(NC(=O)c4nc(NC(=O)CCNC(=O)c5cc(NC(=O)c6nc(NC(=O)CCNC(=O)c7cc(NC(=O)c8nccn8C)cn7C)cn6C)cn5C)cn4C)cn3C)cc1)c1nnc(C)n1-2` [Compound 57], the EC50 was 100 to 500 nM.
Take `Cc1sc2c(c1C)C(c1ccc(Cl)cc1)=N[C@@H](CC(=O)Nc1ccc(OCCOCCOCCOCCOCCOCCC(=O)NCCCOCCCNC(=O)CCNC(=O)c3nc(NC(=O)CCNC(=O)c4cc(NC(=O)c5nc(NC(=O)CCNC(=O)c6cc(NC(=O)c7nccn7C)cn6C)cn5C)cn4C)cn3C)cc1)c1nnc(C)n1-2` [Compound 58]: the EC50 is less than 100 nM.
Turning to `Cc1sc2c(c1C)C(c1ccc(Cl)cc1)=N[C@@H](CC(=O)Nc1ccc(OCCOCCOCCOCCOCCOCCC(=O)NCCCCCCCNC(=O)CCNC(=O)c3nc(NC(=O)CCNC(=O)c4cc(NC(=O)c5nc(NC(=O)CCNC(=O)c6cc(NC(=O)c7nccn7C)cn6C)cn5C)cn4C)cn3C)cc1)c1nnc(C)n1-2` [Compound 59], the EC50 is less than 100 nM.

One may read the EC50 as the concentration needed to bring the measured effect to its halfway point.
